Test results from BindingDB's records for doi:10.1021/jm020588f (The Danish University of Pharmaceutical Sciences, 2003).

Assay: Effective concentration of compound was determined for electrophysiological properties on Ionotropic glutamate receptor AMPA 1 (GluR1) using […] Xenopus laevis oocytes

NC(Cc1o[nH]c(=O)c1Cl)C(=O)O [(R,S)-2-amino-3-(4-chloro-3-hydroxy-5-isoxazolyl)propionate]
EC50: 4.7 µM
